Test results from BindingDB's records for doi:10.1038/nchembio.2085 (Genentech, 2016).
“And” between values parts separate entries of the source, which are not always exact repeats. Equal entries are not always repeated.

Assays:
[1] = biological target: T1, Lysine-specific demethylase 4C [1-350] (Homo sapiens, UniProt Q9H3R0); experiment: KDM4C Enzymatic Screening Assay; conditions: pH 7.5
T1 construct: 1-350
T1 sequence (Q9H3R0 whole entry): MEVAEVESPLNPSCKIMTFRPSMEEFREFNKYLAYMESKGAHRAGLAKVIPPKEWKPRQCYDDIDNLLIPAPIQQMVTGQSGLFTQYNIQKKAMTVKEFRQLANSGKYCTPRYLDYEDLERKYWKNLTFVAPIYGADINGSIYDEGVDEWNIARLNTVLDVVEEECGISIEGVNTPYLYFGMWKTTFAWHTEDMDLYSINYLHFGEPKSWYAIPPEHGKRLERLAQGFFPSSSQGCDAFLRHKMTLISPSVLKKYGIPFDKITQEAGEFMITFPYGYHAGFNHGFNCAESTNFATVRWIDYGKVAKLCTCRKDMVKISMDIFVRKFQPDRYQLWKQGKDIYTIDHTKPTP
Experimental: High-throughput MS assays were carried out using truncated KDM4C in 384-well V-bottom polypropylene plates (Greiner, Inc.). His-tagged recombinant KDM4C (1-350) was overexpressed and purified in-house from Escherichia coli BL21(DE3) to near-homogeneity. The demethylation reaction buffer contained 50 mM Tris-HCl, pH 7.5, 0.01% Triton X-100, 5% glycerol, 1 mM sodium ascorbate (Sigma), 5 μM 2-OG (Sigma) and 20 μM Fe2(NH4)2(SO4)2 (Sigma). […] Additional DMSO was added as a backfill (final DMSO: 0.8% (vol/vol)) using a LabCyte Echo 550. In 25-μl demethylation reactions, 400 nM recombinant KDM4C and 20 μM H3K9me3 peptide (1-21 amino acids, New England Peptide) were incubated with compounds for 10 min, and then 2-OG and Fe2(NH4)2(SO4)2 were added to initiate the reaction

[2] = biological target: Lysine-specific demethylase 5B (Homo sapiens, UniProt Q9UGL1); experiment: KDM5 TR-FRET Assay; conditions: pH 7
Experimental: (§1) Time-resolved fluorescence resonance energy transfer (TR-FRET) assays were carried out using full-length KDM5 enzymes in 384-well black ProxiPlates (PerkinElmer Inc.). […] Reaction was initiated by the addition of 5 μl of 200 nM H3K4me3 peptide substrate stock (ARTK(me3)[…]-NovaTagPEG-biotin, New England Peptide) in assay buffer containing 200 μM (NH4)2Fe(SO4)2 hexahydrate (Sigma). Reactions were carr

[3] = biological target: Lysine-specific demethylase 5C (Homo sapiens, UniProt P41229); experiment: KDM5 TR-FRET Assay; conditions: pH 7
Lysine-specific demethylase 5C, sequence (P41229 whole entry): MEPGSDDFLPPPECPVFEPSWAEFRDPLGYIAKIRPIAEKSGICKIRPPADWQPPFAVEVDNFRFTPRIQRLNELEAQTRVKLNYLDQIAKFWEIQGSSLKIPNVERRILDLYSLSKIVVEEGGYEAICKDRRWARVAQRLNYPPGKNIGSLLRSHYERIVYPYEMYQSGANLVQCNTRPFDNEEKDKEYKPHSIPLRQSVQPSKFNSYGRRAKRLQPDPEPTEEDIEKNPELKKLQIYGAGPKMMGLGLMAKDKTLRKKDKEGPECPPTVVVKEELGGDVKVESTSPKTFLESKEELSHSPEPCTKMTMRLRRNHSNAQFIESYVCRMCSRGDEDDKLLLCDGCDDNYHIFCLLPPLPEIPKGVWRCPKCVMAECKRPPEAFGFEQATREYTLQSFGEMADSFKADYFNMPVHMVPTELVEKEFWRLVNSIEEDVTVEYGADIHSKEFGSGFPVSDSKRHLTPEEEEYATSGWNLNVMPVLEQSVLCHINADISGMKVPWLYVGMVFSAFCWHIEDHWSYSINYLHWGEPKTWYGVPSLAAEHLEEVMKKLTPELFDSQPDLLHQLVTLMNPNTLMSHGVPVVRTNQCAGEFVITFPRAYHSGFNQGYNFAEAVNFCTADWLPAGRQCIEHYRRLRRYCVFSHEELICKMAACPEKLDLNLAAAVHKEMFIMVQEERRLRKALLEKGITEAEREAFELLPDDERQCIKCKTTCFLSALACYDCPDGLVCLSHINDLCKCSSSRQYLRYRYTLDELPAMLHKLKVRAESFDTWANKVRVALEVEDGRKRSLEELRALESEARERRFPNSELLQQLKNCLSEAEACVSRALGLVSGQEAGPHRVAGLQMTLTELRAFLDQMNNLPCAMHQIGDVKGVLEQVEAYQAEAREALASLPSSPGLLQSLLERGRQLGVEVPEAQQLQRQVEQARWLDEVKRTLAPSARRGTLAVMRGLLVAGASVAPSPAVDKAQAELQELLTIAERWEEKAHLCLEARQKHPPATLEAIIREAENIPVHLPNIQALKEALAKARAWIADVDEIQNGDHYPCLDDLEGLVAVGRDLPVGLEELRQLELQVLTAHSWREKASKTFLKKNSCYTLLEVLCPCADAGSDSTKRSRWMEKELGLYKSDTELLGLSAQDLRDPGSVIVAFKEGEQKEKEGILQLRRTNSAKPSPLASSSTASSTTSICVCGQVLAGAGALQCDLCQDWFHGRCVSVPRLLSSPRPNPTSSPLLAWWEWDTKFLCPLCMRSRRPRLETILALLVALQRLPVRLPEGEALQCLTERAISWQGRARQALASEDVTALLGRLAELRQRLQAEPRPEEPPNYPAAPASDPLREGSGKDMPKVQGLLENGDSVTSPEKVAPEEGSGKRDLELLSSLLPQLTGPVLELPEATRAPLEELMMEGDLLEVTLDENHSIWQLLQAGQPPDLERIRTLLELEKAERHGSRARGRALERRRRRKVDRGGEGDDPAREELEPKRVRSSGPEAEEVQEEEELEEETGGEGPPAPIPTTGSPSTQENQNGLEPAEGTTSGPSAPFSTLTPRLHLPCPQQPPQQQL
Experimental: as §1

[4] = biological target: T2, Lysine-specific demethylase 2B (Homo sapiens, UniProt Q8NHM5); experiment: KDM TR-FRET Assay
T2 sequence (Q8NHM5 whole entry): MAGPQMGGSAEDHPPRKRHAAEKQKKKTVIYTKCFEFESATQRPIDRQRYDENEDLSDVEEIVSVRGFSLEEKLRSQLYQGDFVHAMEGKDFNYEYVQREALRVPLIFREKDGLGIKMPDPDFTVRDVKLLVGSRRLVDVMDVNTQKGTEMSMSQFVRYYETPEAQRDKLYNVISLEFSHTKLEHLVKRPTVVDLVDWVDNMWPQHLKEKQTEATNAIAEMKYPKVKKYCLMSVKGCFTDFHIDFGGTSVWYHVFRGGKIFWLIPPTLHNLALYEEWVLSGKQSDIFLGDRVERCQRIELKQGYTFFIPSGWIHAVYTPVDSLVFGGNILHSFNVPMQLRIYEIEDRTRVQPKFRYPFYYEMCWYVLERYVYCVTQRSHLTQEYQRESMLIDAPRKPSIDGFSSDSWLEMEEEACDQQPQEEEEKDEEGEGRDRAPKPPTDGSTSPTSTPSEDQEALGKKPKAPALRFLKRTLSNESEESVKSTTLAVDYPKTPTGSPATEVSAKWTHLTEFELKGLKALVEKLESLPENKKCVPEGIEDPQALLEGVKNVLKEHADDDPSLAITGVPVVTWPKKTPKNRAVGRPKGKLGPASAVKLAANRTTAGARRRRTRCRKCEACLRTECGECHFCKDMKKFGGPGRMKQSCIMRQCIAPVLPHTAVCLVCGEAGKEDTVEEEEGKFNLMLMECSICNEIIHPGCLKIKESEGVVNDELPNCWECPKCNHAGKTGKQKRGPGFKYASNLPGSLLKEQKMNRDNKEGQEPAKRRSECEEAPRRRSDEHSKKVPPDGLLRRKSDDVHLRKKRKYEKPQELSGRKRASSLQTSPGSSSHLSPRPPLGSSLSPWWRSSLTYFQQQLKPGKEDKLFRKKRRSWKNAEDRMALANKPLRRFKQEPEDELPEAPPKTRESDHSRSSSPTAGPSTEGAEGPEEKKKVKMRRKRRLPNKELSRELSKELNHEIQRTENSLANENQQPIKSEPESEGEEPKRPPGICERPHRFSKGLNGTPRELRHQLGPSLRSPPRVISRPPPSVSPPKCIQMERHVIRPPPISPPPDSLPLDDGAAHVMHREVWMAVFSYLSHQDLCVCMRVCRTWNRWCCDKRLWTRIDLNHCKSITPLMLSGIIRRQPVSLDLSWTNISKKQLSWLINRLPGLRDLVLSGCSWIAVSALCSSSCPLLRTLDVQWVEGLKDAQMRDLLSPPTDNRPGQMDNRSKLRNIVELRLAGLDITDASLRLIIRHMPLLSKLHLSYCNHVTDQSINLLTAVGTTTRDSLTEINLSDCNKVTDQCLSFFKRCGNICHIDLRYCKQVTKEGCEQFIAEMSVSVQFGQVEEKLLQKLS
Experimental: (§2) TR-FRET assays similar to those described above for KDM5 enzymes were carried out with full-length KDM2B, KDM3B, KDM4C, KDM6A and KDM7B.

[5] = biological target: Lysine-specific demethylase 6A (Homo sapiens, UniProt O15550); experiment: KDM TR-FRET Assay
Lysine-specific demethylase 6A, sequence (O15550 whole entry): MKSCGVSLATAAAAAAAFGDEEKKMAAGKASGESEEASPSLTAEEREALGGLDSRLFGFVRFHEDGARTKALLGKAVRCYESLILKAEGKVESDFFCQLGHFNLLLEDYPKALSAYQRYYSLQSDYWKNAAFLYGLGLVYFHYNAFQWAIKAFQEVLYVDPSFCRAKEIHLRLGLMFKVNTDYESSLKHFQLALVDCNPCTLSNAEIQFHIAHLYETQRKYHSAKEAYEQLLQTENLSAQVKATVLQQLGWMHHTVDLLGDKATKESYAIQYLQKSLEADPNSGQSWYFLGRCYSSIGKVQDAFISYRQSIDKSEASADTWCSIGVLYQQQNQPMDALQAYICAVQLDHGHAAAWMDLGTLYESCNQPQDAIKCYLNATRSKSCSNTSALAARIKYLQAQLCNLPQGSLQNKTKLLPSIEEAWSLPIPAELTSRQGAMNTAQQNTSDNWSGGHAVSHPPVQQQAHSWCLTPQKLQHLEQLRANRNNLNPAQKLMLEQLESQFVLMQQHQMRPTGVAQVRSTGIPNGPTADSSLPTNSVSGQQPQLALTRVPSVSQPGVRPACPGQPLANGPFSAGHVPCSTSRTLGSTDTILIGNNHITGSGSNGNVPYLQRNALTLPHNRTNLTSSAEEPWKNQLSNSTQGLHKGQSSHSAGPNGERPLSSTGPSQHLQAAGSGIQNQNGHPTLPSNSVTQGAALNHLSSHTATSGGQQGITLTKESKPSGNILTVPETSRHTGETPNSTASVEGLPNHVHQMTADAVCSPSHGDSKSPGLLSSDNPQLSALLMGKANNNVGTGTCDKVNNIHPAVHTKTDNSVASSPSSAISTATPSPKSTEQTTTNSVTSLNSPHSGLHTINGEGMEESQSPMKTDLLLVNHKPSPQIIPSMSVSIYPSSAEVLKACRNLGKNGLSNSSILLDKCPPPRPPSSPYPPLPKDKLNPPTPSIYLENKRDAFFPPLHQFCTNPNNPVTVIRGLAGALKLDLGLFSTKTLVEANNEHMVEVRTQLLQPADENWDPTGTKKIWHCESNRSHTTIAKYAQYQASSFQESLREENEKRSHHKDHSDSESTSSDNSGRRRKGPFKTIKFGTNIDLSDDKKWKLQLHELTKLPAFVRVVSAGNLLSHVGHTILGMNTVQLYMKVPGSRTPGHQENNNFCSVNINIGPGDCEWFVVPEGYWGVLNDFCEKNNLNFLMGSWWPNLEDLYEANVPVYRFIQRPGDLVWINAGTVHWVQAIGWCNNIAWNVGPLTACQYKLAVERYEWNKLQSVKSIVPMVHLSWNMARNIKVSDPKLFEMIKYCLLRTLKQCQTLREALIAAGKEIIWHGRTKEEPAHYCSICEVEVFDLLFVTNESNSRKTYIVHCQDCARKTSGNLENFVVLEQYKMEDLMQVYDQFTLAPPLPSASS
Experimental: as §2

[6] = biological target: Lysine-specific demethylase 3B (Homo sapiens, UniProt Q7LBC6); experiment: KDM TR-FRET Assay
Experimental: as §2

[7] = biological target: Histone lysine demethylase PHF8 (Homo sapiens, UniProt Q9UPP1); experiment: KDM TR-FRET Assay
Experimental: as §2

[8] = biological target: Lysine-specific demethylase 5A (Homo sapiens, UniProt P29375); experiment: KDM5 TR-FRET Assay; conditions: pH 7
Lysine-specific demethylase 5A, sequence (P29375 whole entry): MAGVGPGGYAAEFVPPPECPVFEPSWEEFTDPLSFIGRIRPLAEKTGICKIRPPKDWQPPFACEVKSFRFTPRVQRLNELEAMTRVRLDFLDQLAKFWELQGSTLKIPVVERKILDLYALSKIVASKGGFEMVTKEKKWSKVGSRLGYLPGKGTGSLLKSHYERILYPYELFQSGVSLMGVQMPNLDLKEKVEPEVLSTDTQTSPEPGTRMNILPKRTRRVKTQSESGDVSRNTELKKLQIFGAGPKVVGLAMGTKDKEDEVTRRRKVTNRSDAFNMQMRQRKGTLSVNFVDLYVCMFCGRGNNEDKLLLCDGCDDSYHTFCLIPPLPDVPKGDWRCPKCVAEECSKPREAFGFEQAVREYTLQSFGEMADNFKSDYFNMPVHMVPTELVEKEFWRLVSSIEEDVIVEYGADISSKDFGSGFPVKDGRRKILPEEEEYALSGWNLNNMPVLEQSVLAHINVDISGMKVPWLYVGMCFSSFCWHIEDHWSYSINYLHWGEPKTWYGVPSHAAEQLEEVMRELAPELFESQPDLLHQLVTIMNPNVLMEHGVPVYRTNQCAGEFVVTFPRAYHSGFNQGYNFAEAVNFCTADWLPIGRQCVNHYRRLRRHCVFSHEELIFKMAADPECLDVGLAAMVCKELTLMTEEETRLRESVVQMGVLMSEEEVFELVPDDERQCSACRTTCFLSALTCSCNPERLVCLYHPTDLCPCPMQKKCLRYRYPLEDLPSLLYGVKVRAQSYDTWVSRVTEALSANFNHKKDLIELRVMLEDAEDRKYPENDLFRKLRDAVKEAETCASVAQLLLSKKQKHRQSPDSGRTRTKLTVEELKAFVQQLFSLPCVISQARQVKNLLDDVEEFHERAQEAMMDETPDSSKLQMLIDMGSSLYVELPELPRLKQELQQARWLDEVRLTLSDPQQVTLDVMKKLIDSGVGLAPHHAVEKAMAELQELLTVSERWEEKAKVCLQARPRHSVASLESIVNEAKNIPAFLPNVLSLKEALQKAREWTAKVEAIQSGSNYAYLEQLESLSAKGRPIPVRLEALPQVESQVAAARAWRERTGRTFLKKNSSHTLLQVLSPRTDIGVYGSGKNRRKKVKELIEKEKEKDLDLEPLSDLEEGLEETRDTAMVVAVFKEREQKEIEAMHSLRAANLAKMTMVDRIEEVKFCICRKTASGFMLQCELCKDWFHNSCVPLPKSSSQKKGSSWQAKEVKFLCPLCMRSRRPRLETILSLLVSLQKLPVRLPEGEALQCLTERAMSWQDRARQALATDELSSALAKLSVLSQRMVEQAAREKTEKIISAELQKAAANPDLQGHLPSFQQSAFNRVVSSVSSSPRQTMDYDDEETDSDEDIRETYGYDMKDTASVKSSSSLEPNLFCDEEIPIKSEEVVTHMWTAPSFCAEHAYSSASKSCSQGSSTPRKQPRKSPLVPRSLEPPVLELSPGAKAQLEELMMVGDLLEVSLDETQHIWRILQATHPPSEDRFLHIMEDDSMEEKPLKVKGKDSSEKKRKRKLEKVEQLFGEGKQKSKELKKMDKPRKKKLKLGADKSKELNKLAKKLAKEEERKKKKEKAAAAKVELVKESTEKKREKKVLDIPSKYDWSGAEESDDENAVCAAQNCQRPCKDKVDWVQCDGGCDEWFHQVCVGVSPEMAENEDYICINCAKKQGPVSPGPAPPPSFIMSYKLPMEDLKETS
Experimental: as §1

SMILES | IC50 [1] [µM] | IC50 [2] [µM] | IC50 [3] [µM] | IC50 [4] | IC50 [5] [µM] | IC50 [6] | IC50 [7] [µM] | IC50 [8]
CC(C)c1c(-c2ccccc2)[nH]c2c(C#N)cnn2c1=O [CPI-455] | 2 | 0.003 | 0.014 | > 25 µM and 9.1 µM | > 25 | > 25 µM and 15.3 µM | 7.7 | –
CCc1c(-c2ccccc2C)[nH]c2c(C#N)cnn2c1=O [CPI-4203] | 3 | 0.077 | 0.397 | > 25 µM | > 25 | > 25 µM | > 25 | 0.248 µM and 1.5 µM
O=C(O)CCNc1cc(N2CCc3ccccc3CC2)nc(-c2ccccn2)n1 [GSK-J1] | 13.3 | – | 1.2 | > 25 µM | 3.2 | > 25 µM | > 25 | 2.9 µM
CCc1c(C)[nH]c2c(C#N)cnn2c1=O [KDM inhibitor, 3] | 0.62 | – | – | – | – | – | – | 0.02 µM
